Drawing on patent US20200077648A1, “PHENOXYPHENYLAMIDINES AND THE USE THEREOF AS FUNGICIDES” (priority 2016, published 2020), this text covers LogP for 80 molecules.

Molecules are shown by their SMILES.

The nature of the first series: Log P measurement by HPLC on reversed phase columns (EEC directive 79/831 Annex V.A8; methods [a], [b], [c]). The series is classed as physicochemical. The following applies: method [a]: LC-UV, acidic range, 0.1% formic acid in water and acetonitrile as eluent. As to the method:
If more than one Log P value is available within the same method, all the values are given and separated by “+”. […] Lambda-max-values were determined using UV-spectra from 200 nm to 400 nm and the peak values of the chromatographic signals.
Consider `CCN(C)C=Nc1cc(C)c(Oc2ccccc2Cl)cc1C(F)F` [Example 39], for which the LogP is 1.88^[a].

On to `CCN(C)C=Nc1cc(C)c(Oc2ccccc2)cc1C(F)(F)F` [Example 22], for which the LogP is 1.89^[a].

As to `CCN(C)C=Nc1cc(Cl)c(Oc2ccccc2C#N)cc1C` [Example 18], the LogP is 1.21^[a]. Still for that read-out and setting: the result for `Cc1cc(Oc2ccccc2F)c(C)cc1N=CN(C)C` [Example 66] reads 1.43^[a]. On the same count and under the same terms, the result for `CCN(C)C=Nc1cc(C)c(Oc2ccccc2)cc1C#N` [Example 13] reads 1.58^[a];; that for `CCN(C)C=Nc1cc(Br)c(Oc2ccccc2I)cc1C` [Example 47], 1.92^[a]. For `Cc1cc(N=CN(C)C)c(Cl)cc1Oc1ccccc1Br` [Example 37], the LogP was 1.55^[a];. Still for that read-out and setting: the result for `Cc1cc(N=CN(C)C)c(Cl)cc1Oc1ccccc1F` [Example 60] reads 1.37^[a]; that for `CCN(C)C=Nc1cc(Br)c(Oc2ccccc2C)cc1C` [Example 43], 1.72^[a]; that for `CCN(C)C=Nc1cc(Br)c(Oc2ccccc2Br)cc1C` [Example 46], 1.84^[a].

As for `CCN(C)C=Nc1cc(Br)c(Oc2ccccc2Cl)cc1C` [Example 45], the LogP was 1.79^[a].

For the molecule `CCN(C)C=Nc1cc(C)c(Oc2ccccc2C)cc1C(F)F` [Example 6], the LogP was 1.72^[a]. Same read-out and setting: the result for `CCN(C)C=Nc1cc(C)c(Oc2cccc(Cl)c2)cc1C` [Example 1] reads 1.86^[a]. Consider `Cc1cc(N=CN(C)C(C)C)c(Br)cc1Oc1ccccc1F` [Example 63], for which the LogP was 1.63^[a].

Take `CCN(C)C=Nc1cc(C(F)F)c(Oc2ccccc2F)cc1C` [Example 54]: the LogP was 1.49^[a]. Consider `CCN(C)C=Nc1cc(C)c(Oc2ccccc2Br)cc1C(F)F` [Example 40], for which the LogP is 1.94^[a].

Regarding `Cc1cc(Oc2ccccc2)c(I)cc1N=CN(C)C` [Example 32], the LogP was 1.61^[a];. Regarding `CCN(C)C=Nc1cc(C)c(Oc2ccccc2C)cc1OC` [Example 15], the LogP was 1.60^[a];. In the case of `Cc1cc(N=CN(C)C(C)C)c(Cl)cc1Oc1ccccc1F` [Example 62], the LogP was 1.61^[a]. For the molecule `Cc1cc(N=CN(C)C)c(Br)cc1Oc1ccccc1F` [Example 61], the LogP is 1.39^[a].

As for `CCN(C)C=Nc1cc(C)c(Oc2ccccc2Br)cc1Cl` [Example 29], the LogP is 1.80^[a];. Same read-out and setting: the result for `CCN(C)C=Nc1cc(C)c(Oc2ccccc2C#N)cc1C(F)(F)F` [Example 27] reads 1.63^[a]; that for `CCN(C)C=Nc1cc(C)c(Oc2ccccc2C2CC2)cc1C` [Example 11], 2.09^[a].

In the case of `CCN(C)C=Nc1cc(C)c(Oc2ccccc2Cl)cc1C(F)(F)F` [Example 23], the LogP is 2.08^[a]. As to `CCN(C)C=Nc1cc(C)c(Oc2cccc(Cl)c2)cc1Cl` [Example 49], the LogP is 1.84^[a]. Take `CCN(C)C=Nc1cc(C)c(Oc2ccccc2F)cc1OC` [Example 14]: the LogP is 1.46^[a];. Consider `CCN(C)C=Nc1cc(I)c(Oc2ccccc2Cl)cc1C` [Example 58], for which the LogP was 1.72^[a]. On the same count and under the same terms, the result for `CCN(C)C=Nc1cc(C)c(Oc2ccccc2I)cc1C(F)F` [Example 41] reads 1.90^[a]. On to `CCN(C)C=Nc1cc(Cl)c(Oc2cccc(Cl)c2F)cc1C` [Example 50], for which the LogP is 1.83^[a]. Same read-out and setting: the result for `CCN(C)C=Nc1cc(C)c(Oc2ccccc2)cc1C1CC1` [Example 51] reads 1.75^[a].

Consider `CCN(C)C=Nc1cc(C(F)(F)F)c(Oc2ccccc2C)cc1C` [Example 33], for which the LogP was 1.96^[a]. On the same count and under the same terms, the result for `CCN(C)C=Nc1cc(C)c(Oc2ccccc2C#N)cc1Cl` [Example 17] reads 1.21^[a]; that for `CCN(C)C=Nc1cc(C)c(Oc2cccc(Cl)c2F)cc1Cl` [Example 3], 1.88^[a]. Still for that read-out and setting: the result for `CCN(C)C=Nc1cc(C)c(Oc2ccccc2C)cc1C(F)(F)F` [Example 28] reads 1.96^[a]. As for `CCN(C)C=Nc1cc(C)c(Oc2ccccc2C#N)cc1C(F)F` [Example 38], the LogP is 1.55^[a]. `CCN(C)C=Nc1cc(C)c(Oc2ccccc2Br)cc1C(F)(F)F` [Example 25]: the LogP is 2.17^[a]. Still for that read-out and setting: the result for `CCN(C)C=Nc1cc(C)c(Oc2ccccc2I)cc1C(F)(F)F` [Example 26] reads 2.28^[a]; that for `CCN(C)C=Nc1cc(C)c(Oc2ccccc2F)cc1C(F)(F)F` [Example 24], 1.89^[a].

The same series, now with this note: method [a]: LC-UV, acidic range, 0.1% formic acid in water and acetonitrile as eluent (linear gradient 10% to 95% acetonitrile).
As for `CCN(C)C=Nc1cc(C)c(Oc2ccccc2Br)cc1C` [Example 83], the LogP was 1.63^[a].

In the case of `CCN(C)C=Nc1cc(C)c(Oc2ccccc2F)cc1C1CC1` [Example 110], the LogP was 1.83^[a].

As for `CCN(C)C=Nc1cc(C)c(Oc2ccccc2C(F)F)cc1Cl` [Example 78], the LogP was 1.55^[a]. Same read-out and setting: the result for `CCN(C)C=Nc1cc(C)c(Oc2ccccc2C#N)cc1Br` [Example 92] reads 1.27^[a]; that for `CCN(C)C=Nc1cc(C)c(Oc2ccccc2N(C)C)cc1C` [Example 85], 0.55^[a].

As to `C=C(C)c1cc(Oc2ccccc2)c(C)cc1N=CN(C)CC` [Example 96], the LogP was 1.63^[a].

As for `CCN(C)C=Nc1cc(C)c(Oc2ccccc2C2CC2)cc1Br` [Example 94], the LogP is 1.84^[a].

`CCN(C)C=Nc1cc(C)c(Oc2cccc(F)c2C#N)cc1Br` [Example 104]: the LogP was 1.58^[a].

With `CCN(C)C=Nc1cc(C)c(Oc2ccccc2SC)cc1C` [Example 115], the LogP is 1.55^[a]. Same read-out and setting: the result for `CCN(C)C=Nc1cc(C)c(Oc2ccccc2C2CC2)cc1Cl` [Example 74] reads 1.78^[a]. Same read-out and setting: the result for `CCN(C)C=Nc1cc(C)c(Oc2ccccc2)cc1C1CC1` [Example 113] reads 1.58^[a]; that for `CCN(C)C=Nc1cc(C)c(Oc2ccccc2)cc1C#N` [Example 72], 1.53^[a]. Turning to `C#Cc1cc(Oc2ccccc2)c(C)cc1N=CN(C)CC` [Example 111], the LogP is 1.44^[a]. The same measure, in the same setting: the result for `C=C(C)c1cc(Oc2ccccc2F)c(C)cc1N=CN(C)CC` [Example 97] reads 1.66^[a]; that for `CCN(C)C=Nc1cc(C)c(Oc2ccccc2F)cc1N(C)C` [Example 81], 1.58^[a]; that for `Cc1cc(Oc2ccccc2Br)c(C)cc1N=CN(C)C(C)C` [Example 69], 1.97^[a].

Turning to `Cc1cc(Oc2ccccc2C#N)c(C)cc1N=CN(C)C` [Example 70], the LogP is 1.25^[a]. Still for that read-out and setting: the result for `CCN(C)C=Nc1cc(C2CC2)c(Oc2ccccc2C#N)cc1C` [Example 119] reads 1.38^[a]. Still for that read-out and setting: the result for `C#Cc1cc(Oc2ccccc2F)c(C)cc1N=CN(C)CC` [Example 112] reads 1.44^[a]; that for `Cc1cc(Oc2ccccc2Br)c(C)cc1N=CN(C)C` [Example 68], 1.66^[a].

Regarding `CCN(C)C=Nc1cc(C)c(Oc2ccccc2)cc1N(C)C` [Example 82], the LogP was 1.58^[a]. Same read-out and setting: the result for `CCN(C)C=Nc1cc(C)c(Oc2ccccc2[S+](C)[O-])cc1Br` (centres unmarked) [Example 101] reads 1.02^[a]; that for `CCN(C)C=Nc1cc(C)c(Oc2ccccc2S(C)(=O)=O)cc1Cl` [Example 75], 0.91^[a]; that for `CCN(C)C=Nc1cc(C)c(Oc2ccccc2[S+](C)[O-])cc1C` (centres unmarked) [Example 116], 0.94^[a]. The same measure, in the same setting: the result for `CCN(C)C=Nc1cc(C)c(Oc2ccccc2C(F)(F)F)cc1Cl` [Example 90] reads 1.81^[a]; that for `CCN(C)C=Nc1cc(C)c(Oc2ccccc2C(C)C)cc1Br` [Example 98], 2.26^[a]. Still for that read-out and setting: the result for `C=C(C)c1cc(N=CN(C)CC)c(C)cc1Oc1ccccc1C#N` [Example 109] reads 1.60^[a]. With `CCN(C)C=Nc1cc(C)c(Oc2ccccc2C(=O)N(C)C)cc1Cl` [Example 91], the LogP was 0.97^[a]. On the same count and under the same terms, the result for `CCN(C)C=Nc1cc(C)c(Oc2ccccc2F)cc1C(=O)N(C)C` [Example 117] reads 1.24^[a]; that for `CCN(C)C=Nc1cc(C)c(Oc2cccc(F)c2C)cc1C` [Example 86], 1.72^[a].

Turning to `CCN(C)C=Nc1cc(C)c(Oc2ccccc2N(C)C)cc1Br` [Example 100], the LogP was 1.07^[a]. As to `CCN(C)C=Nc1cc(C)c(Oc2ccccc2S(C)(=O)=O)cc1Br` [Example 123], the LogP was 0.94^[a]. With `Cc1cc(Oc2ccccc2C#N)c(I)cc1N=CN(C)C(C)C` [Example 426], the LogP was 1.41^[a]. Turning to `CCN(C)C=Nc1cc(C)c(Oc2ccccc2C(=O)OC)cc1Cl` [Example 77], the LogP is 1.35^[a]. In the case of `CCc1cc(N=CN(C)CC)c(C)cc1Oc1ccccc1C#N` [Example 108], the LogP is 1.59^[a]. With `CCN(C)C=Nc1cc(C)c(Oc2ccccc2S(C)(=O)=O)cc1C` [Example 122], the LogP was 0.91^[a]. Turning to `CCN(C)C=Nc1cc(C)c(Oc2cccc(F)c2C)cc1Br` [Example 95], the LogP was 1.75^[a].

Take `CCN(C)C=Nc1cc(C)c(Oc2cc(F)ccc2C#N)cc1C` [Example 84]: the LogP is 1.29^[a]. Same read-out and setting: the result for `CCN(C)C=Nc1cc(C)c(Oc2cccc(F)c2C#N)cc1C` [Example 80] reads 1.32^[a]; that for `C=Cc1ccccc1Oc1cc(Cl)c(N=CN(C)CC)cc1C` [Example 89], 1.69^[a]. Regarding `CCN(C)C=Nc1cc(C)c(Oc2ccccc2SC)cc1Br` [Example 103], the LogP was 1.82^[a]. On to `CCN(C)C=Nc1cc(C)c(Oc2ccccc2I)cc1Br` [Example 99], for which the LogP is 2.03^[a].

The same series, now with this note: method [b]: LC-UV, neutral range, 0.001 molar ammonium acetate solution in water and acetonitrile as eluent.
As for `CCN(C)C=Nc1cc(C)c(Oc2ccccc2)cc1C#N` [Example 13], the LogP is 3.78^[b]. For the molecule `Cc1cc(N=CN(C)C)c(Cl)cc1Oc1ccccc1Br` [Example 37], the LogP is 4.47^[b]. On the same count and under the same terms, the result for `Cc1cc(Oc2ccccc2)c(I)cc1N=CN(C)C` [Example 32] reads 4.51^[b]; that for `CCN(C)C=Nc1cc(C)c(Oc2ccccc2C)cc1OC` [Example 15], 5.53^[b]. As to `CCN(C)C=Nc1cc(C)c(Oc2ccccc2Br)cc1Cl` [Example 29], the LogP is 4.93^[b]. The same measure, in the same setting: the result for `CCN(C)C=Nc1cc(C)c(Oc2ccccc2F)cc1OC` [Example 14] reads 4.33^[b].
